The record followed here is patent US20180360707A1, “COMPOSITION AND METHOD FOR INCREASE OF SURVIVAL AND STABILIZATION OF PROBIOTIC BACTERIA (PB) IN DETERGENT BASED COMPOSITIONS OF PERSONAL HYGIENE AND DOMESTIC PRODUCTS” (UAB "PROBIOSANUS", priority 2015, published 2018).

This test concerns Bacillus coagulans DSM 2311. Briefly: Analysis of encapsulated and non-capsulated bacteria viability (CFU survival) in detergent solution, cosmetic compound solution or final detergent based product. Type of test: cell-based. The protocol:
For all experimental trails probiotic strain of Bacillus coagulans DSM 2311 was used which was obtained from DSMZ. Bacterial cell suspension was prepared by cultivation of B. coagulans cells in 100 mL of liquid nutrient broth medium (Oxoid) in 1000 mL Erlenmeyer flask, for 24 hours at 37° C. while shaking at 180 rmp. Prior to encapsulation the cells were collected by centrifugation at 6000 rpm using Rotofix 32 A Hettich, then washed twice and re-suspended in sterile 0.9% NaCl solution to obtain cell concentration of 10^11 per mL.
1 g of ˜10^10 bacteria-containing lyophilized and rehydrated or fresh microcapsules was added to the fixed volume (100 mL) of either: detergent solution, cosmetic compound containing solution or final formulation detergent based product, and incubated at 37° C. temperature. The samples were harvested at certain timepoints to evaluate bacterial survival. After sample harvest the bacterial capsules were washed twice with sterile water and added to a fixed volume of sterile 2% sodium citrate solution for liberation of encapsulated bacteria. The cell suspension was diluted from 10^1 to 10^5 fold and 100 μL of solution was plated on Petri dishes filled with Nutrient Broth solid medium. The survival rates [%] of capsulated and non-capsulated bacteria was estimated by comparing CFU averages at each sample point, from 3 replicas. See formulas:
[formula] • N—estimated CFU; • CFU—sum of calculated colonies from each evaluated Petri plates • Vp—plated volume • Vfd—final dilution volume • D—dilution fold • Survival of bacteria [%]=N(1+n)/N1*100 • N1—bacterial CFU's from first timepoint sample • N(1+n)—bacterial CFU's from following timepoint sample
1 g of 10^10 bacteria-containing rehydrated or fresh microcapsules was added to the fixed volume (100 mL) of detergent solution and incubated for 120 hours at 37° C. temperature. A parallel experiment was performed with non-capsulated cells (control group). After the sample harvest the bacterial capsules were washed twice with sterile water and added to the fixed volume of sterile 2% sodium citrate solution for liberation of encapsulated bacteria. The cell suspension was diluted 10^1-10^5 fold and 100 μL plated on replicates of Nutrient Broth solid medium. The survival rates [%] of capsulated and non-capsulated bacteria were estimated as described in the section—Analysis of encapsulated bacteria viability in detergent based solution, by comparing CFU averages at each sample time point from 3 replicas.
1 g of 10^10 bacteria containing lyophilized-rehydrated microcapsules was added to the fixed volume (100 mL) of solutions of: Grapefruit seed extract d-limonene, or Azadirachta indica extract and incubated for 120 hours at 37° C. temperature. A parallel experiment was performed with non-capsulated cells. After sample harvest the bacterial capsules were washed twice with sterile water and added to the fixed volume of sterile 2% sodium citrate solution for liberation of encapsulated bacteria. The cell suspension was diluted 10^1-10^5 fold and 100 μL of solution was plated on replicates of Nutrient Broth solid medium. The survival rates [%] of capsulated and non-capsulated bacteria were estimated as described in the section—Analysis of encapsulated bacteria viability in detergent based solution, by comparing CFU averages at each sample point, from 3 replicas. […]

cocoglycozide: where the note is “7% cocoglycozide solution, 37° C.”, the non-capsulated bacteria inactivated was 75%.

In turn, `CCCCCCCCCCCCOS(=O)(=O)[O-].[Na+]` [SLS, sodium lauryl sulphate] registered a non-capsulated bacteria inactivated (6.7% sodium lauryl sulphate (SLS) solution, 37° C.) of 80%.

Where the note is “3% cocamide diethanolamine solution, 37° C.”, cocamide diethanolamine registered a non-capsulated bacteria inactivated of 75%.

With cocoamide propyl betaine [CAPB], the “non-capsulated bacteria (starting titers) inactivated” value (cocoamide propyl betaine (CAPB) 6.7% solution, after 0.5 h, 37° C.) is 97%.

With `C=C(C)[C@H]1CC=C(C)CC1` [terpenes, d-limonene], under “0.7% terpene d-limonene solution, in 2 hours”, the “non-capsulated B. Coagulans bacteria inactivated” value was 100%.
